Measured values taken from the NIST ThermoML archive (doi:10.1021/je060219e).
“And” between values parts separate entries of the source, which are not always exact repeats. Equal entries are not always repeated.

Test: φn = volume fraction of the nth substance listed
Details: 101 kPa, Liquid

CCO [ethanol] + O
viscosity
Details | 303.15 K | 308.15 K | 313.15 K | 318.15 K | 323.15 K
φ1 = 0.1 | 0.6791 mPa·s | 0.6191 mPa·s | 0.5909 mPa·s | 0.5763 mPa·s | 0.5305 mPa·s
φ1 = 0.2 | 0.9735 mPa·s | 0.871 mPa·s | 0.7442 mPa·s | 0.6476 mPa·s | 0.598 mPa·s
φ1 = 0.3 | 1.186 mPa·s | 0.8816 mPa·s | 0.8614 mPa·s | 0.797 mPa·s and 0.79 mPa·s | 0.698 mPa·s
φ1 = 0.4 | 1.254 mPa·s | 1.147 mPa·s | 0.9262 mPa·s | 0.8844 mPa·s | 0.7081 mPa·s
φ1 = 0.5 | 1.426 mPa·s | 1.216 mPa·s | 1.14 mPa·s | 0.8776 mPa·s | 0.825 mPa·s
